Measured values as given in patent US9371333B2, “Chromene derivatives and their analoga as Wnt pathway antagonists” (Deutsches Krebsforschungszentrum, priority 2010, dated 2016).

How the values were obtained:
Format in all cases: cell-based
Hek293T = assay: Cytotoxicity in Hek293T (CellTiterGlo); details: Homo sapiens, HEK-293T, 24 h after compound addition
Protocol: (§1) For examination of cytotoxicity in these cancer cell lines the commercial available CellTiterGlo® Reagent (Promega, USA) was used according to the manufactor.
(§2) Compounds were applied to Hek293T (denoted (a)) or HepG2 (denoted (b)), cultured in Dulbecco's Modified Eagles Medium, supplemented with 10% fetal calf serum and 1% penicillin/streptomycin. Cells were grown in T75 flasks at 37° C., 5% CO2 and trypsinized when 60-80% confluent by adding 2 ml of 0.25% Trypsin-EDTA solution. Cells were then re-suspended into culture medium yielding approx. 4000 cells (a) or 4500 cells (b), suspended in 30 microl medium. 48 h after cell seeding, compounds were added to yield the desired final concentrations. 24 h after compound addition cytotoxicity was evaluated. For this purpose the media was removed and CellTiterGlo® was added according to the manufactors manual. In this assay the luciferase emission readout is directly correlated with the cellular amount of ATP, low luciferase emission thus is reflecting cytotoxicity of a compound.

HepG2 = assay: Cytotoxicity in HepG2 (CellTiterGlo); details: Homo sapiens, 24 h after compound addition
Protocol: as §1, §2

[1] = test system: human fibroblasts (HS-68); assay: Cell line specific cytotoxicity, normal cells HS68 (nuclei count); details: Hoechst labeled nuclei count, at least 72 hr
Protocol: For examination of cell line-specific cytotoxicity, compounds were applied to human colorectal cancer cells (HCT116, denoted (1); SW480, denoted (2); Dld-1, denoted (3)) and human fibroblasts (HS-68, denoted (4)), cultured in Mc Coy's ((1)) and Dulbecco's Modified Eagles Medium ((2)-(4)), supplemented with 10% ((1)-(3)) and 20% ((4)) fetal calf serum and 1% penicillin/streptomycin. Cells were grown in T75 flasks at 37° C., 5% CO2 and trypsinized when 60-80% confluent by adding 2 ml of 0.25% Trypsin-EDTA (ethylenediaminetetraacetic acid) solution. Cells were then re-suspended into culture medium yielding approx. 750 cells, suspended in 45 microl medium, were plated into each well of a black 384-well plate for fluorescence imaging experiments. […] Compound incubation was terminated by (a) fixation and (b) permeabilisation of cells, followed by (c) fluorescence labeling of cell nuclei for cytometric quantification or by immunocytochemistry for microscopic evaluation of cell morphology. […]
Cell line-specific cytotoxicity was quantified by counting the number of Hoechst labeled nuclei per well of a 384-well plate using a plate cytometer. Data obtained with the cytometer was analysed using standard data analysis software.
Identified hits were further evaluated by visual inspection of fluorescence micrographs obtained from imaging using a conventional fluorescence microscope.

SMILES: COc1cc(C2C(C#N)=C(N)Oc3c2ccc2ccc(N)nc32)cc(Br)c1OC (racemic) [(20), 3,6-Diamino-1-(3-bromo-4,5-dimethoxy-phenyl)-1H-4-oxa-5-aza-phenanthrene-2-carbonitrile]
- IC50 (Hek293T): > 90 µM
- IC50 (HepG2): 37 µM

SMILES: COc1cc(C2C(C#N)=C(N)Oc3c2ccc2ccccc32)cc(Br)c1OC (stereo not drawn) [(1), 2-Amino-4-(3-bromo-4,5-dimethoxy-phenyl)-4H-benzo[h]chromene-3-carbonitrile]
- IC50 (Hek293T): > 90 µM
- IC50 (HepG2): > 90 µM

SMILES: C=CCOc1c(Br)cc(C2C(C(=O)OCC)=C(N)Oc3c2ccc2ccccc32)cc1OC (stereo not drawn) [(4), 4-(4-Allyloxy-3-bromo-5-methoxy-phenyl)-2-amino-4H-benzo[h]chromene-3-carboxylic acid ethyl ester]
- IC50 (Hek293T): > 90 µM
- IC50 (HepG2): > 90 µM

SMILES: CCOC(=O)C1=C(N)Oc2c(ccc3ccccc23)C1c1cc(Br)c(OC)c(OC)c1 (stereo not drawn) [(6), 2-Amino-4-(3-bromo-4,5-dimethoxy-phenyl)-4H-benzo[h]chromene-3-carboxylic acid ethyl ester]
- IC50 (Hek293T): > 90 µM
- IC50 (HepG2): > 90 µM

SMILES: N#CC1=C(N)Oc2c(ccc3ccccc23)C1c1cc(F)c(F)c(F)c1 (stereo not drawn) [(7), 2-Amino-4-(3,4,5-trifluoro-phenyl)-4H-benzo[h]chromene-3-carbonitrile]
- IC50 (Hek293T): > 90 µM
- IC50 (HepG2): > 90 µM

SMILES: COc1cc(C2C(C#N)=C(N)Oc3c2ccc2ccc(C)nc32)cc(Br)c1OC (stereo not drawn) [(16), 3-Amino-1-(3-bromo-4,5-dimethoxy-phenyl)-6-methyl-1H-4-oxa-5-aza-phenanthrene-2-carbonitrile]
- IC50 (Hek293T): > 90 µM
- IC50 (HepG2): > 90 µM

SMILES: COc1cc(C2C(C#N)=C(N)Oc3c2c(O)nc2ccccc32)cc(Br)c1OC (stereo not drawn) [(17), 2-Amino-4-(3-bromo-4,5-dimethoxy-phenyl)-5-hydroxy-4H-pyrano[3,2-c]quinoline-3-carbonitrile]
- IC50 (Hek293T): > 90 µM
- IC50 (HepG2): > 90 µM
- IC50 [1]: > 90 µM

SMILES: COc1cc(C2C(C#N)=C(N)Oc3c2ccc2ncccc32)cc(Br)c1OC (stereo not drawn) [(18), 6-Amino-8-(3-bromo-4,5-dimethoxy-phenyl)-8H-5-oxa-1-aza-phenanthrene-7-carbonitrile]
- IC50 (Hek293T): > 90 µM
- IC50 (HepG2): > 90 µM

SMILES: COc1cc(C2C(C#N)=C(N)Oc3c2ccc2ccc(O)nc32)cc(Br)c1OC (stereo not drawn) [(19), 3-Amino-1-(3-bromo-4,5-dimethoxy-phenyl)-6-hydroxy-1H-4-oxa-5-aza-phenanthrene-2-carbonitrile]
- IC50 (Hek293T): > 90 µM
- IC50 (HepG2): > 90 µM

SMILES: N#CC1=C(N)Oc2cc3ccccc3cc2C1c1cc(F)c(F)c(F)c1 (stereo not drawn) [(28), 2-amino-4-(3,4,5-trifluoro-phenyl)-4H-benzo[g]chromene-3-carbonitrile]
- IC50 (Hek293T): > 90 µM
- IC50 (HepG2): 31.7 µM

SMILES: N#CC1=C(N)Oc2cc3ccccc3cc2C1c1cc(F)c(N2CCCCC2)c(F)c1 (stereo not drawn) [(29), 2-amino-4-(3,5-difluoro-4-piperidin-1-yl-phenyl)-4H-benzo[g]chromene-3-carbonitrile]
- IC50 (Hek293T): > 90 µM
- IC50 (HepG2): 42.5 µM

SMILES: COc1cc(C2C(C#N)=C(N)Oc3cc4ccccc4cc32)cc(Br)c1OC (stereo not drawn) [(30), 2-Amino-4-(3-bromo-4,5-dimethoxy-phenyl)-4H-benzo[g]chromene-3-carbonitrile]
- IC50 (Hek293T): > 90 µM
- IC50 (HepG2): > 90 µM

SMILES: COc1cc(C2C(C#N)=C(N(C)C)Oc3cc4ccccc4cc32)cc(Br)c1OC (stereo not drawn) [(31), 2-Dimethylamino-4-(3-bromo-4,5-dimethoxy-phenyl)-4H-benzo[g]chromene-3-carbonitrile]
- IC50 (Hek293T): > 90 µM
- IC50 (HepG2): > 90 µM

SMILES: N#CC1=C(N)Oc2cc3c(cc2C1c1cc(F)c(F)c(F)c1)OCO3 (stereo not drawn) [(39), 6-Amino-8-(3,4,5-trifluoro-phenyl)-8H-[1,3]dioxolo[4,5-g]chromene-7-carbonitrile]
- IC50 (Hek293T): > 90 µM
- IC50 (HepG2): > 90 µM
- IC50 [1]: > 90 µM

SMILES: CCOC(=O)C1=C(N)Oc2cc3c(cc2C1c1cc(F)c(F)c(F)c1)OCO3 (stereo not drawn) [(40), 6-Amino-8-(3,4,5-trifluoro-phenyl)-8H-[1,3]dioxolo[4,5-g]chromene-7-carboxylic acid ethyl ester]
- IC50 (Hek293T): > 90 µM
- IC50 (HepG2): > 90 µM

SMILES: C=CCOc1c(Br)cc(C2C(C#N)=C(N)Oc3cc4c(cc32)OCO4)cc1OC (stereo not drawn) [(41), 8-(4-Allyloxy-3-bromo-5-methoxy-phenyl)-6-amino-8H-[1,3]dioxolo[4,5-g]chromene-7-carbonitrile]
- IC50 (Hek293T): > 90 µM
- IC50 (HepG2): > 90 µM

SMILES: C=CCOc1c(Br)cc(C2C(C(=O)OCC)=C(N)Oc3cc4c(cc32)OCO4)cc1OC (stereo not drawn) [(42), 8-(4-Allyloxy-3-bromo-5-methoxy-phenyl)-6-amino-8H-[1,3]dioxolo[4,5-g]chromene-7-carboxylic acid ethyl ester]
- IC50 (Hek293T): > 90 µM
- IC50 (HepG2): > 90 µM
